The values that follow come from patent US4414388A, “1-Oxo-1H-thiazolo[3,2-a]pyrimidine-2-carboxamides” (Pfizer Inc., priority 1981, dated 1983).

One data set relates to IgG. The data set can be described thus: passive cutaneous anaphylaxis (PCA) test, oral, IgG (hyperimmune antiserum) site. It counts as in vivo, rat. As to conditions: Table I; for inhibition in vivo at 30 mg/kg: Rattus norvegicus, read-out: Oral Activity (% of Protection) of Amides in the PCA Test, IgG 30 mg./kg. As to the method:
(§1) The antiallergy property of the compounds of this invention is evaluated by the passive cutaneous anaphylaxis (PCA) test (Ovary, J. Immun., 81, 355, 1958). In the PCA test, normal animals are injected intradermally (i.d.) with antibodies contained in serum obtained from actively sensitized animals. The animals are then challenged intravenously with antigen mixed with a dye such as Evans' Blue. The increased capillary permeability caused by the antigen-antibody reaction causes the dye to leak from the site of the antibody injection. The test animals are then asphyxiated and the intensity of the reaction determined by measuring the diameter and intensity of the blue coloration on the inner surface of the animals' skin.
(§2) The PCA test is a measure of the anti-allergic (especially anti-asthmatic) activity of a compound. Compounds which inhibit a positive PCA test induced by the rat immunochemical counterpart of human immunoglobulin E (IgE), or reagin, are considered to have anti-allergic activity (C. Mota, Ann. N.Y. Acad. Sci., 103, 264 1963). (Reagin is primarily immunoglobulin E [IgE] and is the principal immunoglobulin responsible for allergic asthma, anaphylaxis, hay fever, food sensitivities and certain manifestations of drug sensitivities, although recent evidence ascribes to the IgG class of antibodies a significant role in the mediation of allergic diseases). Such compounds when administered to a sensitized subject, human or animal, prior to the time when the subject comes into contact with antigens or substances to which it is allergic, will prevent the allergic reaction which would otherwise occur. They, therefore, provide a method for the prophylactic treatment of allergy or anaphylactic reactions of a reagin mediated nature.
(§3) To put it another way, such compounds block the release of mediators resulting from the antigen-antibody (allergic) reaction as illustrated in the PCA test using rat homocytotropic antibody--a known correlate of human reaginic antibody. Inhibition of reaginic antigen-antibody reactions in rats, the test animal of the PCA test, is regarded as representative of inhibition of human reaginic antigen-antibody reactions which occur during allergic episodes.
(§4) The ability of agents to interfere with PCA reactions is measured in male Charles River Wistar rats, 170-210 g. Reaginic antiserum, rich in IgE antibodies, is prepared according to Petillo et al., Int. Arch. Allergy, 44, 309 (1973). Hyperimmune antiserum rich in IgG antibodies to hen egg albumin is prepared according to Orange et al., J. Exptl. Med., 127, 767 (1968). Forty-eight hours prior to antigen challenge, the reaginic antiserum is injected intradermally (i.d.) into the shaved skin of a normal rat's back; 5 hours before challenge the hyperimmune antisera is similarly injected. At a third site 60 mcg. histamine dihydrochloride and 0.5 mcg. serotonin creatinine sulfate are injected i.d. just prior to antigen challenge as a check for antihistaminic, antiserotonin and unspecific types of blockage; the compounds of the instant invention or saline are then administered i.v. and immediately followed by the challenge of 5 mg. egg albumen and 2.5 mg. Evans' Blue dye in saline. In the case of oral administration Evans' Blue dye and egg albumin are given 5 minutes after administration of the drug. Thirty minutes later the animals are asphyxiated using chloroform and the skin of the back removed and reversed for observation. A score is assigned each injection site equal to the product of the diameter of the site in mm. and a grade of 0.1, 0.5, 1, 2, 3 or 4 proportional to intensity of dye coloration. The scores for a given injection site are summed for each group of five animals and compared to the saline treated controls. The difference is expressed as percent blockage due to the compound employed. […]

A further data set relates to IgE. The data set can be described thus: passive cutaneous anaphylaxis (PCA) test, oral, IgE (reaginic antiserum) site. It counts as in vivo, rat. To be noted: Table I; for inhibition in vivo at 30 mg/kg: Rattus norvegicus, read-out: Oral Activity (% of Protection) of Amides in the PCA Test, IgE 30 mg./kg. As to the method:
as §1, §2, §3, §4

A short description of data set [1]: plasma concentration / oral absorption in rats. It counts as in vivo, rat. As to conditions: rat; oral dosing of III. As to the method:
(§5) This is supported by the observations of plasma concentrations of 3 to 7 μg/ml one hour after oral administration of III, 50 to 300 mg/kg.

A further data set has as its system allergy and ulcer. The data set can be described thus: antiallergy and antiulcer activity, general statement. To be noted: in vivo. As to the method: as §1
The antiulcer activity of the compounds of the present invention is evaluated by the so-called cold-restraint stressed rat assay. Alternatively, the antiulcer activity is determined in a newly established ethanol-induced rat ulcer assay described below.

A short description of data set [2]: plasma concentration / oral absorption in dogs. It counts as in vivo, dog. As to conditions: dog; oral dosing of III. As to the method:
as §5

Data set [3] in a line: water solubility and hygroscopicity of the sodium salt. Type of data set: physicochemical. As to conditions: sodium salt (trihydrate).
The next data set relates to gastric ulcers. To be noted: animals, including humans; cited from earlier work.
Data set [4] deals with dextran induced release of histamine. Put plainly: dextran induced release of histamine into the rat peritoneal cavity. Type of data set: in vivo. To be noted: ip. The source says: Compound III inhibits dextran induced release of histamine into the rat peritoneal cavity.
In the next data set the test system is mediators of anaphylaxis. As to conditions: cited from earlier work.

Entries after “also recorded” stand apart in the source; their conditions may differ. Counter-ions that a name gives are not always drawn.

Consider `O=C(Nc1nnn[nH]1)c1cnc2sc3c(n2c1=O)CCC3` [Amide I, R1R2 = (CH2)3, N-(5-tetrazolyl)-1-oxo-1H-cyclopentenothiazolo[3,2-a]pyrimidine-2-carboxamide], for which the “Oral Activity (% of Protection) of Amides in the PCA Test, IgG 3 mg./kg.” value in the data set with IgG (3 mg./kg.) is 43%. The “Oral Activity (% of Protection) of Amides in the PCA Test, IgE 3 mg./kg.” value with IgE (3 mg./kg.) turned out to be 46%.

As for `CCc1c(C)sc2ncc(C(=O)Nc3nnn[nH]3)c(=O)n12` [Amide I, R1 = CH3, R2 = C2 H5, N-(5-tetrazolyl)-1-oxo-1H-6-methyl-7-ethylthiazolo[3,2-a]pyrimidine-2-carboxamide], the “Oral Activity (% of Protection) of Amides in the PCA Test, IgG 10 mg./kg.” value (“Oral Activity (% of Protection) … IgG 10 mg./kg.” below) with IgG was 57%. For the same molecule, in the data set with IgE, the “Oral Activity (% of Protection) of Amides in the PCA Test, IgE 10 mg./kg.” value (from here on “Oral Activity (% of Protection) … IgE 10 mg./kg.”) stood at 75%.

For `O=C(Nc1nnn[nH]1)c1cnc2sc3c(n2c1=O)CCCCC3` [Amide I, R1R2 = (CH2)5, N-(5-tetrazolyl)-1-oxo-1H-cycloheptenothiazolo[3,2-a]pyrimidine-2-carboxamide], the “Oral Activity (% of Protection) … IgG 10 mg./kg.” value in the data set on IgG was 38%. Further, in the data set with IgE, the “Oral Activity (% of Protection) … IgE 10 mg./kg.” value was found to be 25%.

`O=C(O)c1cnc2sc3c(n2c1=O)CCCC3` [Acid II, R1R2 = (CH2)4, 1-oxo-1H-cyclohexenothiazolo[3,2-a]pyrimidine-2-carboxylic acid]: in [1], the “plasma levels of the carboxylic acid metabolite compared with III, rat” value is listed as “comparable to those of III”. In addition, the “activity of metabolite, in words” value in the data set on allergy and ulcer is given as “good activity”. In data set [2], the “plasma levels of the carboxylic acid metabolite compared with III, dog” value is “comparable to those of III”.

With `O=C(Nc1nnn[nH]1)c1cnc2sc3c(n2c1=O)CCCCCC3` [Amide I, R1R2 = (CH2)6, N-(5-Tetrazolyl)-1-oxo-1H-cyclooctenothiazolo[3,2-a]pyrimidine-2-carboxamide], the “Oral Activity (% of Protection) … IgG 10 mg./kg.” value in the data set on IgG turned out to be 57%. Besides, the “Oral Activity (% of Protection) … IgE 10 mg./kg.” value in the data set with IgE came out at 94%.

As for `CCC(C)c1csc2ncc(C(=O)Nc3nnn[nH]3)c(=O)n12` (centres unmarked) [N-(5-Tetrazolyl)-1-oxo-1H-7-(2-butyl)thiazolo[3,2-a]pyrimidine-2-carboxamide], the inhibition in vivo at 30 mg/kg in the data set on IgG and in the data set on IgE was 6% throughout.

As to `CC1(C)CCc2c(sc3ncc(C(=O)Nc4nnn[nH]4)c(=O)n23)C1` [Amide I, R1R2 = CH2 C(CH3)2 CH2 CH2, N-(5-Tetrazolyl)-1-oxo-1H-7,7-dimethylcyclohexenothiazolo[3,2-a]pyrimidine-2-carboxamide], the inhibition in vivo at 30 mg/kg in the data set on IgG is 27%; in the data set on IgE, 38%.

For `CC1CCc2c(sc3ncc(C(=O)Nc4nnn[nH]4)c(=O)n23)C1` (centres unmarked) [Amide I, R1R2 = CH2 CH(CH3)CH2 CH2, N-(5-tetrazolyl)-1-oxo-1H-7-methylcyclohexenothiazolo[3,2-a]pyrimidine-2-carboxamide], the inhibition in vivo at 30 mg/kg in the data set with IgG stood at 33%; with IgE it was 44%.

For the molecule `CCc1csc2ncc(C(=O)Nc3nnn[nH]3)c(=O)n12` [Amide I, R1 = H, R2 = C2 H5, N-(5-tetrazolyl)-1-oxo-1H-7-ethylthiazolo[3,2-a]pyrimidine-2-carboxamide], the “Oral Activity (% of Protection) … IgG 10 mg./kg.” value in the data set with IgG is 44%. Moreover, in the data set with IgE, the “Oral Activity (% of Protection) … IgE 10 mg./kg.” value turned out to be 70%.

On to `CCc1sc2ncc(C(=O)Nc3nnn[nH]3)c(=O)n2c1CC` [Amide I, R1 = C2 H5, R2 = C2 H5, N-(5-tetrazolyl)-1-oxo-1H-6,7-diethylthiazolo[3,2-a]pyrimidine-2-carboxamide], for which the “Oral Activity (% of Protection) … IgG 10 mg./kg.” value in the data set on IgG is 49%. In the data set with IgE, the “Oral Activity (% of Protection) … IgE 10 mg./kg.” value is 62%.

In the case of `O=C(Nc1nnn[nH]1)c1cnc2sc3c(n2c1=O)CCCC3` [sodium salt (trihydrate), sodium N-(5-tetrazolyl)-1-oxo-1H-cyclohexenothiazolo[3,2-a]pyrimidine-2-carboxamide trihydrate], in data set [3], the hygroscopicity entry was “non-hygroscopic” and the water solubility entry is on record as “good water solubility”.

As for `CC(C)(C)c1csc2ncc(C(=O)Nc3nnn[nH]3)c(=O)n12` [Amide I, R1 = H, R2 = C(CH3)3, N-(5-tetrazolyl)-1-oxo-1H-7-(2-methyl-2-propyl)thiazolo[3,2-a]pyrimidine-2-carboxamide], the “Oral Activity (% of Protection) … IgG 10 mg./kg.” value with IgG came to 20%. The “Oral Activity (% of Protection) … IgE 10 mg./kg.” value in the data set on IgE is listed as 37%.

As for `O=C(Nc1nnn[nH]1)c1cnc2sc3c(n2c1=O)CCC(c1ccccc1)C3` (centres unmarked) [Amide I, R1R2 = CH2 CH(C5 H6)CH2 CH2, N-(5-tetrazolyl)-1-oxo-1H-7-phenylcyclohexenothiazolo[3,2-a]pyrimidine-2-carboxamide], the inhibition in vivo at 30 mg/kg with IgG turned out to be 7%; in the data set with IgE, 4%.

Consider `CN/C(=N/CCSCc1nc[nH]c1C)NC#N` [cimetidine], for which, in the data set on gastric ulcers, the “effect on gastric ulcers” value was “alleviates ulcers by reducing gastric acid secretion”.

`CC1(C)[C@@H](OC(=O)CCC(=O)O)CC[C@]2(C)[C@H]3C(=O)C=C4[C@@H]5C[C@@](C)(C(=O)O)CC[C@]5(C)CC[C@@]4(C)[C@]3(C)CC[C@@H]12` [carbenoxolone sodium, disodium salt of the hemisuccinate of glycyrrhetinic acid]: the “effect on gastric ulcers” value in the data set on gastric ulcers is “prevent formation of and to accelerate healing of gastric ulcers”.

Turning to `O=C(O)c1cc(=O)c2c(OCC(O)COc3cccc4oc(C(=O)O)cc(=O)c34)cccc2o1` [Intal, 1,3-bis(2-carboxycromon-5-yloxy)-2-hydroxy-propane], the ED50 (commonly the dose at which the effect has come halfway, by size or by number of responders) in data set [4] turned out to be 0.014 mg/kg. Besides, in the data set on mediators of anaphylaxis (in vivo), the bronchodilator activity result is on record as “not a bronchodilator” and the “release of mediators of anaphylaxis” value is on record as “inhibition of release of mediators of anaphylaxis”. Moreover, the “oral activity/efficacy of Intal” value with mediators of anaphylaxis (oral route) is listed as “lacks efficacy by the oral route; also recorded: not active by the oral route; also recorded: lack of oral efficacy”.

Turning to `CC(C)c1csc2ncc(C(=O)Nc3nnn[nH]3)c(=O)n12` [Amide I, R1 = H, R2 = CH(CH3)2, N-(5-tetrazolyl)-1-oxo-1H-7-isopropylthiazolo[3,2-a]pyrimidine-2-carboxamide], the “Oral Activity (% of Protection) … IgG 10 mg./kg.” value in the data set with IgG came to 53%. For the same molecule, the “Oral Activity (% of Protection) … IgE 10 mg./kg.” value in the data set on IgE is 72%.
